Reference: US12150995B2, “IRAK degraders and uses thereof” (Kymera Therapeutics, Inc., priority 2020, dated 2024)

biological target: T1, IRAK4 (Homo sapiens, UniProt Q9NWZ3); test: IRAK4 MSD Degradation in OCI-LY10; type: cell-based; conditions: OCI-LY10 cells, Meso Scale Discovery, incubated 4 to 24 hours
T1 construct: endogenous in cells; host or cells: OCI-LY10
T1 sequence (Q9NWZ3 1-460): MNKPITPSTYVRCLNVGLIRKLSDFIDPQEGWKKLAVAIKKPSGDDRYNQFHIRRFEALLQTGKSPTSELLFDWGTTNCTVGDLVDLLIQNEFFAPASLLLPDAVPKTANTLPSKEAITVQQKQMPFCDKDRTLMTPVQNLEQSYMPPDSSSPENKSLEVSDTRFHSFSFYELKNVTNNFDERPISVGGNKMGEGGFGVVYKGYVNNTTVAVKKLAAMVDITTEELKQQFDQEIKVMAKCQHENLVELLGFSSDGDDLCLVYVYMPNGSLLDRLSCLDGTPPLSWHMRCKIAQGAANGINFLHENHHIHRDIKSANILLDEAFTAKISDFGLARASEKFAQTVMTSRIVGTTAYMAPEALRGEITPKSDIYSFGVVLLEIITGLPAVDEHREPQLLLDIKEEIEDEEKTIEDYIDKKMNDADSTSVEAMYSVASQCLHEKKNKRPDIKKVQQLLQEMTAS
Experimental: Degradation of IRAK4 in OCI-LY10 was quantitatively measured using Meso Scale Discovery technology. OCI-LY10 cells were seeded in 96-well plates (Corning 3799) with a density of 300,000 cells per well in 100 μL fresh media. Compounds were then added to the assay plates with a final top concentration of 1 to 10 μM in a 1:3 dilution series with total of 8 doses. The assay plates were then incubated for 4 to 24 hours at 37° C. under 5% CO2. The assay plates were then centrifuged for 5 minutes and the cell pellets were treated with 100 μL/well RIPA lysis buffer (Boston BioProducts BP-115D) with proteinase inhibitors. To prepare MSD assay plates (Meso Scale Discovery Catalog number L15XA-3), the plates were coated with 2 μg/mL capture antibody (mouse Anti-IRAK4 antibody [2H9], ab119942) in PBS, at 40 μL/well. The plates were then incubated overnight at 4° C., washed 3 times with 150 μL/well TBST buffer (Cell Signaling Technology, Catalog number 9997S) and blocked with 150 μL/well blocking buffer (Meso Scale Discovery Catalog number R93BA-4). Cell lysates were then added to MSD assay plates and the plates were incubated at room temperature for 1 hour. The plates were then washed 3 times with 150 μL/well TBST buffer and […] primary detection antibody (rabbit Anti-IRAK4 antibody [Y279], from Abcam. Catalog number ab32511, 1 μg/mL). The assay plates were then incubated at room temperature for 1 hour, washed 3 times with 150 μL/well TBST buffer and 254/well secondary detection antibody, SULFO-TAG anti-rabbit antibody were added (anti rabbit antibody from Meso Scale Discovery, Catalog number R32AB-1, 1 μg/mL). The assay plates were then incubated at room temperature for 1 hour, washed 3 times with 150 μL/well TBST buffer, and 150 μL/well MSD reading buffer (Meso Scale Discovery catalog number R92TC-2) was added. The plates were then analyzed by a MSD reader (Meso Scale Discovery, Model Quick Plex SQ 120). The data was then analyzed by software Prism 7.0 from GraphPad and the dose-depended IRAK4 degradation were fit using a three-parameter logistic equation to calculate DC50.
The letter codes for IRAK4 DC50 include: A (<0.01 μM); B (0.01-0.05 μM); C (0.05-0.1 μM); D (0.1-0.2 μM); and E (>0.2 μM).

| DC50 [nM] | SMILES |
| --- | --- |
| > 200 | COc1cc2nc([C@H]3CC[C@H](CN4CCC5(CC4)CC(CCNc4cccc6c4C(=O)N(C4CCC(=O)NC4=O)C6=O)C5)CC3)oc2cc1NC(=O)c1cnn2cccnc12 (stereo partly drawn) [I-7] |
| 10 to 50 | COc1cc2nn([C@H]3CC[C@H](CN4CCC(CCNc5cccc6c5C(=O)N(C5CCC(=O)NC5=O)C6=O)CC4)CC3)cc2cc1NC(=O)c1cccc(C(C)(F)F)n1 (stereo partly drawn) [I-8] |
| 50 to 100 | COc1cc2nn([C@H]3CC[C@H](CN4CCC5(CC4)CC(CCNc4cccc6c4C(=O)N(C4CCC(=O)NC4=O)C6=O)C5)CC3)cc2cc1NC(=O)c1cccc(C(F)(F)F)n1 (stereo partly drawn) [I-9] |
| 50 to 100 | COc1cc2nc([C@H]3CC[C@H](CN4CC5(CC(CCNc6cccc7c6C(=O)N(C6CCC(=O)NC6=O)C7=O)C5)C4)CC3)cn2cc1NC(=O)c1cccc(C(F)(F)F)n1 (stereo partly drawn) [I-10] |
| 50 to 100 | COc1cc2nn([C@H]3CC[C@@H](CN4CC5(CC(CCNc6cccc7c6C(=O)N(C6CCC(=O)NC6=O)C7=O)C5)C4)CC3)cc2cc1NC(=O)c1cccc(C(C)(F)F)n1 (stereo partly drawn) [I-11, 6-(1,1-Difluoroethyl)-N-[2-[4-[[6-[2-[[2-(2,6-dioxo-3-piperidyl)-1,3-dioxo-isoindolin-4-yl]amino]ethyl]-2-azaspiro[3.3]heptan-2-yl]methyl]cyclohexyl]-6-methoxy-indazol-5-yl]pyridine-2-carboxamide] |
| 10 to 50 | CC(C)(O)c1cc2nc([C@H]3CC[C@H](CN4CC5(CC(CCNc6cccc7c6C(=O)N(C6CCC(=O)NC6=O)C7=O)C5)C4)CC3)cn2cc1NC(=O)c1cccc(C(F)(F)F)n1 (stereo partly drawn) [I-12] |
| < 10 | COc1cc2nn([C@H]3CC[C@H](CN4CCC5(CC4)CC(Nc4cccc6c4C(=O)N(C4CCC(=O)NC4=O)C6=O)C5)CC3)cc2cc1NC(=O)c1cnn2cccnc12 (stereo partly drawn) [I-13] |
| 50 to 100 | CC(C)(O)c1cc2nc([C@H]3CC[C@H](CN4CC5(CC(CCNc6cccc7c6C(=O)N(C6CCC(=O)NC6=O)C7=O)C5)C4)CC3)[nH]c2cc1NC(=O)c1cccc(C(F)(F)F)n1 (stereo partly drawn) [I-14] |
| > 200 | COc1cc2nn([C@H]3CC[C@H](CN4CCC5(CC4)CC(CCNc4cccc6c4C(=O)N(C4CCC(=O)NC4=O)C6=O)C5)CC3)cc2cc1NC(=O)c1cnn2ccc(C(F)(F)F)nc12 (stereo partly drawn) [I-15] |
| 10 to 50 | COc1cc2nn([C@H]3CC[C@H](CN(C)C4CCN(c5cccc6c5n(C)c(=O)n6C5CCC(=O)NC5=O)CC4)CC3)cc2cc1NC(=O)c1ccc(C(F)(F)F)cn1 (stereo partly drawn) [I-16] |
| > 200 | Cn1c(=O)n(C2CCC(=O)NC2=O)c2cccc(C3CCN(C[C@H]4C[C@@H](n5cc6cc(NC(=O)c7cccc(C(F)(F)F)n7)c(F)cc6n5)C4)CC3)c21 (stereo partly drawn) [I-18] |
| > 200 | CN(CCn1cc2cc(NC(=O)c3cccc(C(F)(F)F)n3)c(F)cc2n1)C1CCN(c2cccc3c2n(C)c(=O)n3C2CCC(=O)NC2=O)CC1 (stereo not drawn) [I-19, N-[2-[2-[[1-[1-(2,6-dioxo-3-piperidyl)-3-methyl-2-oxo-benzimidazol-4-yl]-4-piperidyl]-methyl-amino]ethyl]-6-fluoro-indazol-5-yl]-6-(trifluoromethyl)pyridine-2-carboxamide] |
| > 200 | COc1cc2nn(CCN(C)C3CCN(c4cccc5c4n(C)c(=O)n5C4CCC(=O)NC4=O)CC3)cc2cc1NC(=O)c1cccc(C(F)(F)F)n1 (stereo not drawn) [I-20, N-[2-[2-[[1-[1-(2,6-dioxo-3-piperidyl)-3-methyl-2-oxo-benzimidazol-4-yl]-4-piperidyl]-methyl-amino]ethyl]-6-methoxy-indazol-5-yl]-6-(trifluoromethyl)pyridine-2-carboxamide] |
| 100 to 200 | COc1cc2nn(CCN(C)C3CCN(c4cccc5c4n(C)c(=O)n5C4CCC(=O)NC4=O)CC3)cc2cc1NC(=O)c1cnn2cccnc12 (stereo not drawn) [I-21, N-[2-[2-[[1-[1-(2,6-dioxo-3-piperidyl)-3-methyl-2-oxo-benzimidazol-4-yl]-4-piperidyl]-methyl-amino]ethyl]-6-methoxy-indazol-5-yl]pyrazolo[1,5-a]pyrimidine-3-carboxamide] |
| > 200 | CN(CCn1cc2cc(NC(=O)c3cnn4cccnc34)c(F)cc2n1)C1CCN(c2cccc3c2n(C)c(=O)n3C2CCC(=O)NC2=O)CC1 (stereo not drawn) [I-22, N-[2-[2-[[1-[1-(2,6-dioxo-3-piperidyl)-3-methyl-2-oxo-benzimidazol-4-yl]-4-piperidyl]-methyl-amino]ethyl]-6-fluoro-indazol-5-yl]pyrazolo[1,5-a] pyrimidine-3-carboxamide] |
| 100 to 200 | Cc1cc(C2CCN(C[C@H]3CC[C@H](n4cc5cc(NC(=O)c6cccc(C(F)(F)F)n6)c(F)cc5n4)CC3)CC2)c2c(c1)n(C1CCC(=O)NC1=O)c(=O)n2C (stereo partly drawn) [I-23] |
| 10 to 50 | Cn1c(=O)n(C2CCC(=O)NC2=O)c2cccc(C3CCN(C[C@H]4CC[C@H](n5cc6cc(NC(=O)c7cccc(C(F)(F)F)n7)c(Cl)cc6n5)CC4)CC3)c21 (stereo partly drawn) [I-24] |
| < 10 | Cn1c(=O)n(C2CCC(=O)NC2=O)c2c(F)ccc(C3CCN(C[C@H]4CC[C@H](n5cc6cc(NC(=O)c7cccc(C(F)(F)F)n7)c(F)cc6n5)CC4)CC3)c21 (stereo partly drawn) [I-25] |
| < 10 | Cn1c(=O)n(C2CCC(=O)NC2=O)c2cc(F)cc(C3CCN(C[C@H]4CC[C@H](n5cc6cc(NC(=O)c7cccc(C(F)(F)F)n7)c(F)cc6n5)CC4)CC3)c21 (stereo partly drawn) [I-26] |
| < 10 | Cn1c(=O)n(C2CCC(=O)NC2=O)c2cccc(C3CCN(C[C@H]4CC[C@H](N5Cc6cc(NC(=O)c7cccc(C(F)(F)F)n7)c(N7C[C@@H]8C[C@H]7CO8)cc6C5=O)CC4)CC3)c21 (stereo partly drawn) [I-27] |
| < 10 | Cn1c(=O)n(C2CCC(=O)NC2=O)c2cccc(C3CCN(C[C@H]4CC[C@H](N5Cc6cc(NC(=O)c7cccc(C(F)(F)F)n7)c(N7C[C@H]8C[C@@H]7CO8)cc6C5=O)CC4)CC3)c21 (stereo partly drawn) [I-29] |
| 10 to 50 | Cn1c(=O)n(C2CCC(=O)NC2=O)c2cccc(C3CCN(C[C@H]4C[C@H](n5cc6cc(NC(=O)c7cccc(C(F)(F)F)n7)c(F)cc6n5)C4)CC3)c21 (stereo partly drawn) [I-30] |
| < 10 | COc1cc2nn([C@H]3C[C@H](CN(C)C4CCN(c5cccc6c5n(C)c(=O)n6C5CCC(=O)NC5=O)CC4)C3)cc2cc1NC(=O)c1cccc(C(F)(F)F)n1 (stereo partly drawn) [I-31, N-[2-[3-[[[1-[1-(2,6-dioxo-3-piperidyl)-3-methyl-2-oxo-benzimidazol-4-yl]-4-piperidyl]-methyl-amino]methyl]cyclobutyl]-6-methoxy-indazol-5-yl]-6-(trifluoromethyl)pyridine-2-carboxamide] |
| < 10 | COc1cc2nn([C@H]3C[C@@H](CN(C)C4CCN(c5cccc6c5n(C)c(=O)n6C5CCC(=O)NC5=O)CC4)C3)cc2cc1NC(=O)c1cccc(C(F)(F)F)n1 (stereo partly drawn) [I-32, N-[2-[3-[[[1-[1-(2,6-dioxo-3-piperidyl)-3-methyl-2-oxo-benzimidazol-4-yl]-4-piperidyl]-methyl-amino]methyl]cyclobutyl]-6-methoxy-indazol-5-yl]-6-(trifluoromethyl)pyridine-2-carboxamide] |
| < 10 | COc1cc2nn([C@H]3C[C@H](CN4CCC(c5cccc6c5n(C)c(=O)n6C5CCC(=O)NC5=O)CC4)C3)cc2cc1NC(=O)c1cccc(C(F)(F)F)n1 (stereo partly drawn) [I-33] |
| < 10 | COc1cc2nn([C@H]3CC[C@H](CN4CCC(c5cc(C)cc6c5n(C)c(=O)n6C5CCC(=O)NC5=O)CC4)CC3)cc2cc1NC(=O)c1cccc(C(F)(F)F)n1 (stereo partly drawn) [I-35] |
| < 10 | COc1cc2nn([C@H]3CC[C@H](CN4CCC(c5cc(Cl)cc6c5n(C)c(=O)n6C5CCC(=O)NC5=O)CC4)CC3)cc2cc1NC(=O)c1cccc(C(F)(F)F)n1 (stereo partly drawn) [I-36] |
| < 10 | COc1cc2nn([C@H]3CC[C@H](CN4CCC(c5c(Cl)ccc6c5n(C)c(=O)n6C5CCC(=O)NC5=O)CC4)CC3)cc2cc1NC(=O)c1cccc(C(F)(F)F)n1 (stereo partly drawn) [I-37] |
| < 10 | Cn1c(=O)n(C2CCC(=O)NC2=O)c2cccc(C3CCN(C[C@H]4CC[C@H](n5cc6cc(NC(=O)c7cccc(C(F)(F)F)n7)c(N7CCOCC7)cc6n5)CC4)CC3)c21 (stereo partly drawn) [I-38] |
| < 10 | COc1cc2nn([C@H]3CC[C@H](CN4CCC(c5c(C)ccc6c5n(C)c(=O)n6C5CCC(=O)NC5=O)CC4)CC3)cc2cc1NC(=O)c1cccc(C(F)(F)F)n1 (stereo partly drawn) [I-39] |
